Test results taken from ChEMBL document CHEMBL3885881, “DrugMatrix”.

Species: Rattus norvegicus
Test: DrugMatrix - Regimen: Daily Repeat
Format: toxicity, organism-based, Sprague-Dawley
Set-up: regimen Daily Repeat, gender Male, age 6-8 weeks
Details: in vivo, sc, […], route mini-PUMP - SUBCUTANEOUS, dose 0.44 mg/Kg, dose level High, vehicle 100 % SALINE; for ABSOLUTE BASOPHIL / ABSOLUTE EOSINOPHIL / ABSOLUTE LYMPHOCYTE / ABSOLUTE MONOCYTE / ABSOLUTE SEGMENTED NEUTROPHIL / BASOPHIL / EOSINOPHIL / ERYTHROCYTE COUNT / HEMATOCRIT / HEMOGLOBIN / LEUKOCYTE COUNT / LYMPHOCYTE / MEAN CORPUSCULAR HEMOGLOBIN / MEAN CORPUSCULAR HEMOGLOBIN CONCENTRATION / MEAN CORPUSCULAR VOLUME / MONOCYTE / NEUTROPHIL / NUCLEATED RED BLOOD CELLS / PLATELET COUNT: tissue Blood; for ALANINE AMINOTRANSFERASE / ALBUMIN / ALKALINE PHOSPHATASE / ASPARTATE AMINOTRANSFERASE / BLOOD UREA NITROGEN / CARBON DIOXIDE / CHLORIDE / CHOLESTEROL / CREATININE / GLUCOSE / LACTATE DEHYDROGENASE / LIPASE / PHOSPHORUS / POTASSIUM / SODIUM / TOTAL BILIRUBIN / TOTAL PROTEIN / URIC ACID: tissue Plasma

For CNC[C@H](O)c1cccc(O)c1 [PHENYLEPHRINE], the “ABSOLUTE BASOPHIL” value (72 h, time 3 day) was 0 CELLS/uL, the “ABSOLUTE EOSINOPHIL” value (72 h, time 3 day) was 55.67 CELLS/uL and the “ABSOLUTE LYMPHOCYTE” value (72 h, time 3 day) was 14419.33 CELLS/uL. The “ABSOLUTE MONOCYTE” value (72 h, time 3 day) was 594.67 CELLS/uL, the “ABSOLUTE SEGMENTED NEUTROPHIL” value (72 h, time 3 day) was 1063.67 CELLS/uL and the BASOPHIL (72 h, time 3 day) was 0%. For the same molecule, the EOSINOPHIL (72 h, time 3 day) was 0.33%, the “ERYTHROCYTE COUNT” value (72 h, time 3 day) was 5.8 x10E6/uL and the HEMATOCRIT (72 h, time 3 day) was 34.93%. For the same molecule, the HEMOGLOBIN (72 h, time 3 day) was 13 G/DL, the “LEUKOCYTE COUNT” value (72 h, time 3 day) was 16.13 x10E3/uL and the LYMPHOCYTE (72 h, time 3 day) was 89.33%. For the same molecule, the “MEAN CORPUSCULAR HEMOGLOBIN” value (72 h, time 3 day) was 22.43 pg, the “MEAN CORPUSCULAR HEMOGLOBIN CONCENTRATION” value (72 h, time 3 day) was 37.23 G/DL and the “MEAN CORPUSCULAR VOLUME” value (72 h, time 3 day) was 60.33 fL. For the same molecule, the MONOCYTE (72 h, time 3 day) was 3.67%, the NEUTROPHIL (72 h, time 3 day) was 6.67% and the “NUCLEATED RED BLOOD CELLS” value (72 h, time 3 day) was 0.33 /100WBC. For the same molecule, the “PLATELET COUNT” value (72 h, time 3 day) was 1250 x10E3/uL, the “ALANINE AMINOTRANSFERASE” value (72 h, time 3 day) was 43.33 u/L and the ALBUMIN (72 h, time 3 day) was 3.87 G/DL. For the same molecule, the “ALKALINE PHOSPHATASE” value (72 h, time 3 day) was 289 u/L, the “ASPARTATE AMINOTRANSFERASE” value (72 h, time 3 day) was 78.67 u/L and the “BLOOD UREA NITROGEN” value (72 h, time 3 day) was 16 mg/dL. The “CARBON DIOXIDE” value (72 h, time 3 day) was 25.67 mmol/L, the CHLORIDE (72 h, time 3 day) was 102.67 MEQ/L and the CHOLESTEROL (72 h, time 3 day) was 76 mg/dL. For the same molecule, the CREATININE (72 h, time 3 day) was 0.16 mg/dL, the GLUCOSE (72 h, time 3 day) was 149 mg/dL and the “LACTATE DEHYDROGENASE” value (72 h, time 3 day) was 363 u/L. It also gave an LIPASE (72 h, time 3 day) of 9.33 u/L, a PHOSPHORUS (72 h, time 3 day) of 13.17 mg/dL and a POTASSIUM (72 h, time 3 day) of 6.76 MEQ/L. For the same molecule, the SODIUM (72 h, time 3 day) was 148.13 MEQ/L, the “TOTAL BILIRUBIN” value (72 h, time 3 day) was 0.17 mg/dL and the “TOTAL PROTEIN” value (72 h, time 3 day) was 6.13 G/DL. The “URIC ACID” value (72 h, time 3 day) was 1.83 mg/dL, the “ABSOLUTE BASOPHIL” value (120 h, time 5 day) was 0 CELLS/uL and the “ABSOLUTE EOSINOPHIL” value (120 h, time 5 day) was 45.67 CELLS/uL. For the same molecule, the “ABSOLUTE LYMPHOCYTE” value (120 h, time 5 day) was 14706.67 CELLS/uL, the “ABSOLUTE MONOCYTE” value (120 h, time 5 day) was 166.33 CELLS/uL and the “ABSOLUTE SEGMENTED NEUTROPHIL” value (120 h, time 5 day) was 1714.67 CELLS/uL. For the same molecule, the BASOPHIL (120 h, time 5 day) was 0%, the EOSINOPHIL (120 h, time 5 day) was 0.33% and the “ERYTHROCYTE COUNT” value (120 h, time 5 day) was 6.03 x10E6/uL. The HEMATOCRIT (120 h, time 5 day) was 35.63%, the HEMOGLOBIN (120 h, time 5 day) was 13.2 G/DL and the “LEUKOCYTE COUNT” value (120 h, time 5 day) was 16.63 x10E3/uL. The LYMPHOCYTE (120 h, time 5 day) was 88.33%, the “MEAN CORPUSCULAR HEMOGLOBIN” value (120 h, time 5 day) was 21.9 pg and the “MEAN CORPUSCULAR HEMOGLOBIN CONCENTRATION” value (120 h, time 5 day) was 37.03 G/DL. For the same molecule, the “MEAN CORPUSCULAR VOLUME” value (120 h, time 5 day) was 59.07 fL, the MONOCYTE (120 h, time 5 day) was 1% and the NEUTROPHIL (120 h, time 5 day) was 10.33%. For the same molecule, the “NUCLEATED RED BLOOD CELLS” value (120 h, time 5 day) was 0 /100WBC, the “PLATELET COUNT” value (120 h, time 5 day) was 1498.33 x10E3/uL and the “ALANINE AMINOTRANSFERASE” value (120 h, time 5 day) was 48.33 u/L. The ALBUMIN (120 h, time 5 day) was 3.97 G/DL, the “ALKALINE PHOSPHATASE” value (120 h, time 5 day) was 321.67 u/L and the “ASPARTATE AMINOTRANSFERASE” value (120 h, time 5 day) was 89.67 u/L. The “BLOOD UREA NITROGEN” value (120 h, time 5 day) was 14 mg/dL, the “CARBON DIOXIDE” value (120 h, time 5 day) was 27.67 mmol/L and the CHLORIDE (120 h, time 5 day) was 103.33 MEQ/L. It also gave a CHOLESTEROL (120 h, time 5 day) of 71 mg/dL, a CREATININE (120 h, time 5 day) of 0.15 mg/dL and a GLUCOSE (120 h, time 5 day) of 166 mg/dL. For the same molecule, the “LACTATE DEHYDROGENASE” value (120 h, time 5 day) was 145.33 u/L, the LIPASE (120 h, time 5 day) was 9 u/L and the PHOSPHORUS (120 h, time 5 day) was 12.6 mg/dL. The POTASSIUM (120 h, time 5 day) was 6.15 MEQ/L, the SODIUM (120 h, time 5 day) was 148.6 MEQ/L and the “TOTAL BILIRUBIN” value (120 h, time 5 day) was 0.17 mg/dL. For the same molecule, the “TOTAL PROTEIN” value (120 h, time 5 day) was 6.1 G/DL, the “URIC ACID” value (120 h, time 5 day) was 1.87 mg/dL and the “ABSOLUTE BASOPHIL” value (time 14 day) was 0 CELLS/uL. For the same molecule, the “ABSOLUTE EOSINOPHIL” value (time 14 day) was 155 CELLS/uL, the “ABSOLUTE LYMPHOCYTE” value (time 14 day) was 14503.4 CELLS/uL and the “ABSOLUTE MONOCYTE” value (time 14 day) was 573 CELLS/uL. For the same molecule, the “ABSOLUTE SEGMENTED NEUTROPHIL” value (time 14 day) was 2768.6 CELLS/uL, the BASOPHIL (time 14 day) was 0% and the EOSINOPHIL (time 14 day) was 0.8%. The “ERYTHROCYTE COUNT” value (time 14 day) was 6.23 x10E6/uL, the HEMATOCRIT (time 14 day) was 37.14% and the HEMOGLOBIN (time 14 day) was 13.54 G/DL. The “LEUKOCYTE COUNT” value (time 14 day) was 18 x10E3/uL, the LYMPHOCYTE (time 14 day) was 80.8% and the “MEAN CORPUSCULAR HEMOGLOBIN” value (time 14 day) was 21.72 pg. For the same molecule, the “MEAN CORPUSCULAR HEMOGLOBIN CONCENTRATION” value (time 14 day) was 36.46 G/DL, the “MEAN CORPUSCULAR VOLUME” value (time 14 day) was 59.54 fL and the MONOCYTE (time 14 day) was 3.2%. The NEUTROPHIL (time 14 day) was 15.2%, the “NUCLEATED RED BLOOD CELLS” value (time 14 day) was 0 /100WBC and the “PLATELET COUNT” value (time 14 day) was 1175 x10E3/uL. The “ALANINE AMINOTRANSFERASE” value (time 14 day) was 43.6 u/L, the ALBUMIN (time 14 day) was 4.1 G/DL and the “ALKALINE PHOSPHATASE” value (time 14 day) was 276.2 u/L. The “ASPARTATE AMINOTRANSFERASE” value (time 14 day) was 80 u/L, the “BLOOD UREA NITROGEN” value (time 14 day) was 19.6 mg/dL and the “CARBON DIOXIDE” value (time 14 day) was 29.4 mmol/L. For the same molecule, the CHLORIDE (time 14 day) was 100.6 MEQ/L, the CHOLESTEROL (time 14 day) was 69.8 mg/dL and the CREATININE (time 14 day) was 0.23 mg/dL. The GLUCOSE (time 14 day) was 173.8 mg/dL, the “LACTATE DEHYDROGENASE” value (time 14 day) was 166.4 u/L and the LIPASE (time 14 day) was 8.6 u/L. For the same molecule, the PHOSPHORUS (time 14 day) was 13.24 mg/dL, the POTASSIUM (time 14 day) was 7.17 MEQ/L and the SODIUM (time 14 day) was 144.9 MEQ/L. The “TOTAL BILIRUBIN” value (time 14 day) was 0.18 mg/dL, the “TOTAL PROTEIN” value (time 14 day) was 6.42 G/DL and the “URIC ACID” value (time 14 day) was 2.54 mg/dL.
